From patent US11696901B2 (SHAOGUAN UNIVERSITY, priority 2020, dated 2023)
“And” between values parts separate entries of the source, which are not always exact repeats. Identical values can stand only once.

Legend:
[1] = Optimal concentration of stabilizer Zn^2+, absorbance of curcumin solution at 425 nm; assay type: physicochemical; settings: after 60 h, room temperature
Protocol: A series of Zn^2+ stock solutions were prepared as follows. 0.03 g, 0.06 g, 0.09 g, 0.12 g, 0.15 g and 0.18 g of zinc sulfate were dissolved with 100 mL of distilled water and stirred uniformly to prepare a series of zinc sulfate stock solutions with a concentration of 0.3 g/L, 0.6 g/L, 0.9 g/L, 1.2 g/L, 1.5 g/L and 1.8 g/L, respectively, which were stored for use.
The 7 vessels were placed at room temperature and measured for the absorbance at 425 nm using a microplate reader every other 12 h, where each measurement was performed in triplicate.

[2] = Stability of absorbance (A/A0 after centrifugation); assay type: physicochemical; settings: comparative experiment; curcumin concentration 6.0/5.8/4.8/4.0 mg/mL, pH 7/7/7/6 in row order; beverage = A3B2C2D2
Protocol: The absorbance (A0) of the sample before the centrifugation and the absorbance (A) of the sample after the centrifugation were measured at the maximum absorption wavelength, and the stability of absorbance was represented by A/A0.

[3] = Precipitation rate after centrifugation; assay type: physicochemical; settings: comparative experiment; curcumin concentration 6.0/5.8/4.8/4.0 mg/mL, pH 7/7/7/6 in row order; beverage = A3B2C2D2
Protocol: The weight of the centrifuge tube and the total weight of the sample and the centrifuge tube were measured, and then the sample was centrifuged at 4,000 r/min for 15 min. The supernatant was discarded and the total weight of the centrifuge tube and the precipitate was accurately measured.
The precipitation rate was calculated as follows: precipitation rate=precipitate weight/sample weightx 100%.

[4] = DPPH⋅ scavenging activity; assay type: biochemical; settings: positive control
Protocol: Moreover, it can also be acidified with citric acid to pH 4.6 and then pasteurized at 80° C. for 20 min; or filtered with a 0.22 μm organic filter for cold sterilization. The unsterilized beverage was used as control. The scavenging capacity toward DPPH free radical was used as an index to evaluate the sterilization effect, where the ascorbic acid (Vc) was used as positive control.
(§1) The beverage samples were prepared as follows.
2 mg, 4 mg, 6 mg, 8 mg and 10 mg of Vc were diluted with distilled water to 100 mL, respectively, that was, the final concentrations of the Vc were 20 μg/mL, 40 μg/mL, 60 μg/mL, 80 μg/mL and 100 μg/mL, respectively.
The reaction mixture was reacted in dark for 30 min, and then measured at 517 nm for the absorbance (A1), where a well containing the sample and 100 μL of absolute ethanol was used as control; a well containing 100 μL of distilled water and 100 μL of the DPPH solution was used as blank group; and Vc was used as positive control.
(§2) The scavenging rate was calculated as follows: scavenging rate %=[1−(A1−A2)/A0]×100%,

[5] = ABTS^+⋅ scavenging activity; assay type: biochemical; settings: positive control
Protocol: as §1
2 mg, 4 mg, 6 mg, 8 mg and 10 mg of Vc were diluted with distilled water to 100 mL, respectively, that was, the final concentrations of the Vc were 20 μg/mL, 40 μg/mL, 60 μg/mL, 80 μg/mL and […], respectively.
5 mL of a K2S2O8 solution (2.6 mmol/L) and 10 mL of an […] (7.4 mmol/L) were mixed uniformly and reacted in dark for 12 h. The ABTS^+⋅ solution was diluted with phosphate buffer solution (pH=6.6) to an absorbance of 0.70±0.02 to produce a working solution. […] The reaction mixture was mixed uniformly, reacted in dark for 6 min and measured at 734 nm for the absorbance A1, where a well containing the sample and 160 μL of absolute ethanol was used as control; a well containing 40 μL of distilled water and 160 μL of the ABTS^+⋅ solution was used as blank group; and Vc was used as positive control.
as §2

[6] = Table 18 (starch sodium octenyl succinate series)
[7] = Table 19, one value beside each beverage (nanoparticle powder 0.2-1.0%)
[8] = Table 21, one value beside each test number
[9] = verification experiment, mean of three repeats
[10] = verification experiment, single repeats 1-3

absorbance of curcumin solution at 425 nm over time ([1]; Zn^2+ concentration 0.36 g/L) | Coefficient of absorbanee stability [2] | Precipitation rate after centrifugation (%) [3] [%] | Compound | absorbance of curcumin solution at 425 nm over time ([1]; Zn^2+ concentration 0.3 g/L) | DPPH · scavenging rate (%) Vc ([4]; Table 16 (CMC-Na series)) [%] | DPPH · scavenging rate (%) Vc ([4]; Table 17 (xanthan gum series)) [%] | DPPH · scavenging rate (%) Vc [4, 6] [%] | Rate of DPPH · radical clearance (%) Vc [4, 7] | DPPH · scavenging rate (%) Vc [4, 8] | DPPH · scavenging rate (%) Vc [4, 9] [%] | DPPH · scavenging rate (%) Vc [4, 10] | ABTS^+ · scavenging rate (%) Vc ([5]; Table 16 (CMC-Na series)) [%] | ABTS^+ · scavenging rate (%) Vc ([5]; Table 17 (xanthan gum series)) [%] | ABTS^+ · scavenging rate (%) Vc [5, 6] [%] | Rate of ABTS^+ · radical clearance (%) Vc [5, 7] | ABTS^+ · scavenging rate (%) Vc [5, 8] | ABTS^+ · scavenging rate (%) Vc [5, 9] [%] | ABTS^+ · scavenging rate (%) Vc [5, 10] [%]
declining tendency | 0.286 ± 0.180 | 0.550 ± 0.100 | COc1cc(/C=C/C(=O)CC(=O)/C=C/c2ccc(O)c(OC)c2)ccc1O [Pure curcumin, Curcumin] | smallest slope and relatively stable absorbance |  |  |  |  |  |  |  |  |  |  |  |  |  | 
 |  |  | O=C1O[C@H]([C@@H](O)CO)C(O)=C1O [Vc, ascorbic acid] |  | 92.51 | 92.51 | 92.51 | 93.15% and 93.62% and 93.67% and 91.72% and 92.51% | 95.72% and 93.44% and 94.65% | 94.5 ± 0.00 | 95.59% and 94.59% | 90.38 | 90.38 | 90.38 | 92.44% and 93.69% and 94.53% and 88.12% and 90.38% | 96.13% and 92.88% and 95.10% | 95.34 ± 0.00 | 95.34
